Test results as given in patent publication US10645928B2, “Pesticidally active polycyclic derivatives with sulfur containing substituents” (Syngenta Participations AG, priority 2014, dated 2020).

Experiments:
Assay type in all cases: in vivo
[1] = tested on: Spodoptera littoralis (Egyptian Cotton Leaf Worm); assay: Example B16: Spodoptera littoralis, sprayed cotton leaf discs, mortality; conditions: foliar, 72 h, application rate of 200 ppm, L1 larvae, 3 days after infestation
Method: (§1) Cotton leaf discs were placed onto agar in 24-well microtiter plates and sprayed with aqueous test solutions prepared from 10,000 ppm DMSO stock solutions. After drying the leaf discs were infested with five L1 larvae. The samples were assessed for mortality 3 days after infestation.

[2] = tested on: Diabrotica balteata (Corn Root Worm); assay: Example B3: Diabrotica balteata, sprayed maize sprouts, mortality; conditions: 96 h, application rate of 200 ppm, L2 larvae, 4 days after infestation
Method: (§2) Maize sprouts placed onto an agar layer in 24-well microtiter plates were treated with aqueous test solutions prepared from 10,000 ppm DMSO stock solutions by spraying. After drying, the plates were infested with L2 larvae (6 to 10 per well). The samples were assessed for mortality 4 days after infestation.

[3] = tested on: Spodoptera littoralis (Egyptian Cotton Leaf Worm); assay: Example B17: Spodoptera littoralis, sprayed cotton leaf discs, mortality, anti-feeding effect and growth inhibition; conditions: foliar, 72 h, application rate of 200 ppm, L1 larvae, 3 days after infestation, read-out: control (at least one of mortality, anti-feedant effect, growth inhibition)
Method: (§3) Cotton leaf discs were placed onto agar in 24-well microtiter plates and sprayed with aqueous test solutions prepared from 10,000 ppm DMSO stock solutions. After drying the leaf discs were infested with five L1 larvae. The samples were assessed for mortality, anti-feeding effect, and growth inhibition in comparison to untreated samples 3 days after infestation. Control of Spodoptera littoralis by a test sample is given when at least one of the categories mortality, anti-feedant effect, and growth inhibition is higher than the untreated sample.

[4] = tested on: Diabrotica balteata (Corn Root Worm); assay: Example B2: Diabrotica balteata, sprayed maize sprouts, mortality and growth inhibition; conditions: 96 h, application rate of 200 ppm, L2 larvae, 4 days after infestation, read-out: effect in at least one of the two categories (mortality or growth inhibition)
Method: as §2, with “mortality and growth inhibition in comparison to untreated samples” for “mortality”

[5] = tested on: Plutella xylostella (Diamond Back Moth); assay: Example B13: Plutella xylostella, treated artificial diet, mortality and growth inhibition; conditions: 120 h, application rate of 200 ppm, L2 larvae, 5 days after infestation, read-out: effect in at least one of the two categories (mortality or growth inhibition)
Method: (§4) 24-well microtiter plates with artificial diet were treated with aqueous test solutions prepared from 10,000 ppm DMSO stock solutions by pipetting. After drying, the plates were infested with L2 larvae (10 to 15 per well). The samples were assessed for mortality and growth inhibition in comparison to untreated samples 5 days after infestation.

[6] = tested on: Spodoptera littoralis (Egyptian Cotton Leaf Worm); assay: Example B19: Spodoptera littoralis, compound in agar absorbed by lettuce roots, anti-feedant effect; conditions: 144 h, test rate of 12.5 ppm, uptake by lettuce roots, Spodoptera eggs, 6 days after infestation, read-out: anti-feeding
From the text: (§5) Test compounds were applied by pipette prepared from 10,000 ppm DMSO stock solutions into 24-well plates and mixed with agar. Lettuce seeds were placed onto the agar and the multi well plate was closed by another plate which contained also agar. After 7 days the compound was absorbed by the roots and the lettuce grew into the lid plate. The lettuce leaves were then cut off into the lid plate. Spodoptera eggs were pipetted through a plastic stencil onto a humid gel blotting paper and the lid plate was closed with it. The samples were assessed for anti-feedant effect in comparison to untreated samples 6 days after infestation.

[7] = tested on: Euschistus heros (Neotropical Brown Stink Bug); assay: Example B5: Euschistus heros, sprayed soybean leaves, mortality; conditions: 120 h, application rate of 200 ppm, N2 nymphs, 5 days after infestation
Method: (§6) Soybean leaves on agar in 24-well microtiter plates were sprayed with aqueous test solutions prepared from 10,000 ppm DMSO stock solutions. After drying the leaves were infested with N2 nymphs. The samples were assessed for mortality 5 days after infestation.

[8] = tested on: Spodoptera littoralis (Egyptian Cotton Leaf Worm); assay: Example B20: Spodoptera littoralis, compound in agar absorbed by lettuce roots, mortality; conditions: 144 h, test rate of 12.5 ppm, uptake by lettuce roots, Spodoptera eggs, 6 days after infestation
From the text: Test compounds were applied by pipette prepared from 10,000 ppm DMSO stock solutions into 24-well plates and mixed with agar. Lettuce seeds were placed onto the agar and the multi well plate was closed by another plate which contained also agar. After 7 days the compound was absorbed by the roots and the lettuce grew into the lid plate. The lettuce leaves were then cut off into the lid plate.
Spodoptera eggs were pipetted through a plastic stencil onto a humid gel blotting paper and the lid plate was closed with it. The samples were assessed for mortality 6 days after infestation.

[9] = tested on: Aedes aegypti (Yellow Fever Mosquito); assay: Example B23: Aedes aegypti, dry deposits in 12 well tissue culture plates, control; conditions: application rate of 200 ppm in ethanol, adult females, after 48 h and/or 24 h
Method: Test solutions, at an application rate of 200 ppm in ethanol, were applied to 12 well tissue culture plates. Once the deposits were dry, five, two to five day old adult female Aedes aegypti were added to each well, and sustained with a 10% sucrose solution in a cotton wool plug. Assessment of knockdown was made one hour after introduction, and mortality was assessed at 24 and 48 hours after introduction.

[10] = tested on: Plutella xylostella (Diamond Back Moth); assay: Example B12: Plutella xylostella, treated artificial diet, mortality; conditions: 120 h, application rate of 200 ppm, L2 larvae, 5 days after infestation
Method: 24-well microtiter plates with artificial diet were treated with aqueous test solutions prepared from 10,000 ppm DMSO stock solutions by pipetting. After drying, the plates were infested with L2 larvae (10 to 15 per well). The samples were assessed for mortality 5 days after infestation.

[11] = tested on: Spodoptera littoralis (Egyptian Cotton Leaf Worm); assay: Example B14: Spodoptera littoralis, sprayed cotton leaf discs, anti-feeding effect; conditions: foliar, 72 h, application rate of 200 ppm, L1 larvae, 3 days after infestation
Method: as §3, with “for” for “for mortality,”, “effect” for “effect, and growth inhibition”, “when” for “when at least one of”, “the” for “the categories mortality,”

[12] = tested on: Euschistus heros (Neotropical Brown Stink Bug); assay: Example B6: Euschistus heros, sprayed soybean leaves, mortality and growth inhibition; conditions: 120 h, application rate of 200 ppm, N2 nymphs, 5 days after infestation, read-out: effect in at least one of the two categories (mortality or growth inhibition)
Method: as §6, with “mortality and growth inhibition in comparison to untreated samples” for “mortality”

[13] = tested on: Bemisia tabaci (Cotton White Fly); assay: Example B1: Bemisia tabaci, sprayed cotton leaf discs, mortality; conditions: foliar, 144 h, application rate of 200 ppm, adult white flies, 6 days after incubation
Method: Cotton leaf discs were placed on agar in 24-well microtiter plates and sprayed with aqueous test solutions prepared from 10,000 ppm DMSO stock solutions. After drying the leaf discs were infested with adult white flies. The samples were checked for mortality 6 days after incubation.

[14] = tested on: Spodoptera littoralis (Egyptian Cotton Leaf Worm); assay: Example B18: Spodoptera littoralis, compound in agar absorbed by lettuce roots, mortality, anti-feedant effect and growth inhibition; conditions: 144 h, test rate of 12.5 ppm, uptake by lettuce roots, Spodoptera eggs, 6 days after infestation, read-out: effect in at least one of the three categories (mortality, anti-feeding, or growth inhibition)
From the text: as §5, with “pipette” for “pipette prepared”, “for mortality,” for “for”, “effect and growth inhibition” for “effect”

[15] = tested on: Plutella xylostella (Diamond Back Moth); assay: Example B10: Plutella xylostella, treated artificial diet, growth inhibition; conditions: 120 h, application rate of 200 ppm, L2 larvae, 5 days after infestation
Method: as §4, with “for” for “for mortality and”, “infestation. Control of Plutella xylostella by a test sample is given when the growth inhibition is higher than the untreated sample.” for “infestation.”

[16] = tested on: Spodoptera littoralis (Egyptian Cotton Leaf Worm); assay: Example B15: Spodoptera littoralis, sprayed cotton leaf discs, growth inhibition; conditions: foliar, 72 h, application rate of 200 ppm, L1 larvae, 3 days after infestation, read-out: control (growth inhibition)
Method: as §3, with “for” for “for mortality, anti-feeding effect, and”, “when” for “when at least one of”, “the” for “the categories mortality, anti-feedant effect, and”

[17] = tested on: Frankliniella occidentalis (Western Flower Thrips); assay: Example B7: Frankliniella occidentalis, sprayed sunflower leaf discs, mortality; conditions: foliar, 168 h, application rate of 200 ppm, population of mixed ages, 7 days after infestation
Method: as §1, with “Sunflower” for “Cotton”, “on” for “onto”, “10,000” for “10,000 ppm”, “a Frankliniella population of mixed ages.” for “five L1 larvae.”, “7” for “3”

[18] = tested on: Myzus persicae (Green Peach Aphid); assay: Example B8: Myzus persicae, sprayed sunflower leaf discs, mortality; conditions: foliar, 144 h, application rate of 200 ppm, leaf disc spray, aphid population of mixed ages, 6 days after infestation
Method: Sunflower leaf discs were placed onto agar in a 24-well microtiter plate and sprayed with aqueous test solutions prepared from 10,000 ppm DMSO stock solutions. After drying, the leaf discs were infested with an aphid population of mixed ages. The samples were assessed for mortality 6 days after infestation.

CCS(=O)(=O)c1cc(-n2ccc(C(F)(F)F)n2)cnc1-c1cn2cnc(C(F)(F)F)cc2n1 [Compound P4, 2-[3-ethylsulfonyl-5-[3-(trifluoromethyl)pyrazol-1-yl]-2-pyridyl]-7-(trifluoromethyl)imidazo[1,2-c]pyrimidine]
≥ 80%: mortality at 200 ppm [1] | mortality at 200 ppm [2] | percent control (mortality, anti-feedant effect or growth inhibition) at 200 ppm [3] | percent effect (mortality or growth inhibition) at 200 ppm [4] | percent effect (mortality or growth inhibition) at 200 ppm [5] | pest or weed control at 12.5 ppm [6] | mortality at 200 ppm [7] | mortality at 12.5 ppm [8] | pest or weed control at 200 ppm [9] | mortality at 200 ppm [10] | pest or weed control at 200 ppm [11] | percent effect (mortality or growth inhibition) at 200 ppm [12] | mortality at 200 ppm [13] | percent effect (mortality, anti-feeding or growth inhibition) at 12.5 ppm [14]

CCS(=O)(=O)c1cc(-c2cccc(SC)c2)cnc1-c1cn2cnc(C(F)(F)F)cc2n1 [Compound P9]
≥ 80%: mortality at 200 ppm [1] | inhibition at 200 ppm [15] | mortality at 200 ppm [2] | percent control (mortality, anti-feedant effect or growth inhibition) at 200 ppm [3] | percent effect (mortality or growth inhibition) at 200 ppm [4] | percent effect (mortality or growth inhibition) at 200 ppm [5] | mortality at 200 ppm [7] | pest or weed control at 200 ppm [9] | inhibition at 200 ppm [16] | mortality at 200 ppm [10] | pest or weed control at 200 ppm [11] | percent effect (mortality or growth inhibition) at 200 ppm [12]

CCS(=O)(=O)c1cc(-c2ccc(C#N)cc2)cnc1-c1cn2cnc(C(F)(F)F)cc2n1 [Compound P10]
≥ 80%: mortality at 200 ppm [1] | mortality at 200 ppm [2] | percent control (mortality, anti-feedant effect or growth inhibition) at 200 ppm [3] | percent effect (mortality or growth inhibition) at 200 ppm [4] | percent effect (mortality or growth inhibition) at 200 ppm [5] | mortality at 200 ppm [17] | inhibition at 200 ppm [16] | mortality at 200 ppm [10] | pest or weed control at 200 ppm [11] | mortality at 200 ppm [13]

CCS(=O)(=O)c1cc(-c2ccc(Cl)cc2)cnc1-c1cn2cnc(C(F)(F)C(F)(F)F)cc2n1 [Compound P15]
≥ 80%: mortality at 200 ppm [1] | percent control (mortality, anti-feedant effect or growth inhibition) at 200 ppm [3] | percent effect (mortality or growth inhibition) at 200 ppm [4] | percent effect (mortality or growth inhibition) at 200 ppm [5] | pest or weed control at 12.5 ppm [6] | mortality at 200 ppm [7] | mortality at 12.5 ppm [8] | mortality at 200 ppm [17] | mortality at 200 ppm [10] | pest or weed control at 200 ppm [11] | percent effect (mortality or growth inhibition) at 200 ppm [12] | mortality at 200 ppm [13] | percent effect (mortality, anti-feeding or growth inhibition) at 12.5 ppm [14]

CCS(=O)(=O)c1cc(C2CC2)cnc1-c1cn2cnc(C(F)(F)F)cc2n1 [Compound P16, 2-(5-cyclopropyl-3-ethylsulfonyl-2-pyridyl)-7-(trifluoromethyl)imidazo [1,2-c]pyrimidine]
≥ 80%: mortality at 200 ppm [1] | inhibition at 200 ppm [15] | mortality at 200 ppm [2] | percent control (mortality, anti-feedant effect or growth inhibition) at 200 ppm [3] | percent effect (mortality or growth inhibition) at 200 ppm [4] | percent effect (mortality or growth inhibition) at 200 ppm [5] | mortality at 200 ppm [7] | mortality at 200 ppm [18] | pest or weed control at 200 ppm [9] | mortality at 200 ppm [17] | inhibition at 200 ppm [16] | mortality at 200 ppm [10] | pest or weed control at 200 ppm [11] | percent effect (mortality or growth inhibition) at 200 ppm [12]
